# Laboratory results reported in patent US20250352654A1, “PHARMACEUTICAL AGENT CONJUGATES TO MODULATE MACROPHAGE AND INFLAMMATORY FUNCTIONS AND USES THEREOF” (REGENTS OF THE UNIVERSITY OF MINNESOTA, priority 2022, published 2025).
# Like-named read-outs stand apart in the source and are kept apart here. Bridge positions count the residues as written; N and C are the ends. Square brackets hold non-standard residues; d marks the D form. Ends that are not written are not given here. FAM = fluorescein amidite (fluorescein); Ahx = NCCCCCC(=O)O
# Tests used:
# [1] = In vivo pharmacokinetics of PSL conjugates; details: male, C57BL/6, mouse, plasma, iv, healthy mice, 1 mg kg-1 equivalent dose of PSL
# Protocol: FIG. 2U discloses mean plasma concentration-time curves of PSL following intravenous administration of free PSL, Cys-PSL and CRV-PSL with an equivalent PSL dosage at 1 mg kg^−1. All the animal experiments were performed in 3-4 mice per group. The data are presented as the mean±standard deviation (SD). Statistical significance was calculated using Student's t test. *P<0.05, **P<0.01, CRV-PSL vs free PSL group; #P<0.05, ##P<0.01, ###P<0.001 Cys-PSL vs free PSL group.
# HPLC-MS/MS analysis was performed using the chromatographic system consisted of UltiMate™ 3000 RSLCnano System (Thermo Fisher Scientific) and a ZORBAX™ C18 column (5 μm, 150 mm 0.5 mm, Agilent, Santa Clara, CA). The mobile phase was a mixture of H2O/acetonitrile with a gradient elution (from 90:10 to 10:90 and return to 90:10, v/v) at a flow rate of 15 μl/min. The eluent was introduced directly into the electrospray source of a tandem quadrupole mass spectrometer (TSQ VANTAGE™, Thermo Fisher Scientific) that was operated in the positive mode. The spray voltage was set at 3000 V. The compounds were analyzed by multiple reaction monitoring (MRM) of the transitions of m/z (ESI+) 361.24→147.06 for PSL.
# Healthy male C57BL/6 mice (8- to 9-weeks-old; body weight of 25-30 g) were deprived of food overnight with free access to water. […]
# We first evaluated the plasma pharmacokinetics of CRV-PSL in healthy mice.
# [2] = type: in vivo, mouse; details: for Thymus weight: mean; for Lymphocytes (count of total blood lymphocytes) / T cells (CD45+CD3+) count: normalized to the vehicle group
# Protocol: (C and D) Flow-cytometry analysis of blood cell populations in mice with different treatment. The count of (C) blood lymphocytes and (D) T cells in mice receiving different treatment were normalized to the vehicle group. […] The weight of thymus was measured, and the blood was collected for flow cytometry 4 h after the third dose of treatment. All experiments were performed in 3-4 mice per group, and the experiment was repeated three times. Data shown are mean±SD. Student's t test was performed for statistical analysis. *p<0.05, **p<0.01, ***p<0.001.
# The gating was started with choosing the live cells by plotting SSC-A vs. FSC-A. Single cells were then selected by plotting FSC-A vs. FSC-H for the live cells followed by subpopulation of CD45+ cells. The lymphocytes were selected by plotting CD45+ cells and SSC-A, which were then selected for T cells by CD3 staining. The tissues and the blood were collected 4 hours after the third dose of treatment. All experiments were performed in 3-4 mice per group and the experiment was repeated three times. The data are presented as the mean±standard deviation (SD). Statistical significance was calculated using Student's t test.
# To identify subpopulations of myeloid cells, single cell suspensions were collected from the lung with a lung dissociation kit for mouse (Miltenyi Biotec, Auburn, CA) and other tissues, including blood and spleen, were collected for flow cytometry analysis. […] Flow cytometry analysis was performed on a BD Fortessa™ X-20 (BD Biosciences, East Rutherford, NJ). The data were analyzed with Flow JO™ software (Tree Star, San Carlos, CA).
# [3] = system: inflamed lung; test: CRV peptide homing in LPS-induced ALI mice (IHC/IF); type: in vivo, mouse; details: healthy (PBS) mice; FAM-labeled peptide i.v., 1 h; IHC and IF
# Protocol: (A) Representative immunohistochemistry (IHC) images of targeting RXRB by CRV peptide in the lung of acute lung injury (ALI) mice. Control (PBS) or ALI (LPS-treated) mice were intravenously injected with FAM-labeled CRV or a control peptide (GGS) for 1 h homing, respectively. The lungs were collected for IHC analysis on whole-cell RXRB expression (left) and peptide amount (detected by anti-FITC antibody, right). (B) Quantification of FITC expression for FAM-labeled peptides in the lungs by IHC staining. (C) Representative immunofluorescence (IF) images of colocalization of rabbit anti-RXRB antibody with CD11b in PBS controls (top) and acute lung injury (ALI) mice (bottom). The lungs were collected for IF staining for the indicated markers after 6 h in vivo homing by intravenous injection of 25 mg of rabbit polyclonal RXRB antibodies in […] of PBS in mice. The mice receiving intratracheal injection of PBS served as healthy controls. All the animal experiments were performed in three mice per group. (D) Relative percentage of RXRB-positive cells in different tissues of ALI mice. […] The fluorescence intensity for CRV or GGS binding per cells was plotted in the histograms. […] (H) Quantification of RXRB in IHC sections from lungs of human subjects with ILD. […] FAM, carboxyfluorescein; FITC, fluorescein iso-thiocyanate; A.U., arbitrary units; MFI, mean fluorescence intensity; Neg, negative. […]
# [4] = system: arthritic joints; test: CRV accumulation in joints of K/BxN serum-transfer arthritis mice (IHC); type: in vivo, mouse; details: FAM peptide i.v., 1 hour
# Protocol: (B) The arthritic mice were injected intravenously with a control peptide (GGS, top) or CRV (bottom). The mice were sacrificed after 1 hour and joints were collected for IHC staining.
# FIGS. 7B-7D illustrates In vivo CRV peptide distribution in arthritic mouse models. (B) Scheme of synthesis of 64Cu-DOTA-CRV. (C) Representative immunohistochemistry (IHC) images of peptide accumulation in the tissues of collagen-induced-arthritis (CIA) mice with anti-FITC antibody for FAM-labeled CRV and FAM-GGS, upon intravenous injection for 1 h, respectively. Scale bars: 100 μm. (D) Representative IHC images of CRV-peptide and a control peptide (GGS) accumulation in the ankle joints of K/B×N serum-transfer arthritic mice at 1 h post intravenous injection as detected by FAM signals with anti-FITC antibody. Scale bar: 200 μm for 10× magnification; 100 μm for 20× magnification. All the animal experiments were performed in 3 mice per group. DOTA, 1,4,7,10-tetraazacyclododocane tetraacetic acid; FAM, carboxyfluorescein; FITC, fluorescein isothiocyanate.
# To study the accumulation of CRV in inflamed joints, 100 μl of fluorescein (FAM)-CRV peptide solution (1 mg/ml in PBS) and the control peptide, GGS (SEQ ID NO: 2), was injected intravenously into mice with K/B×N serum-transfer arthritis (for a description of this mouse model, see VetPathol 52(5):819-26, 2015). […]
# [5] = system: 4T1 breast cancer tumor; test: Tumor accumulation of D-CRV and L-CRV after oral administration; type: in vivo, mouse; details: 4 hours, IF
# Protocol: FAM-labeled L-CRV or D-CRV was orally administered to tumor-bearing mice.
# To compare the in vivo distributions of the D-isoform of CRV (D-CRV) and the L-isoform of CRV (L-CRV), fluorescein (FAM) dye labeled D-CRV and L-CRV peptides were synthesized. 100 μL of peptide solution (5 mg/mL in PBS) was administered via oral gavage into mice bearing a 4T1 breast cancer tumor (for a description of how this mouse model is generated, see J Control Release 301:42-53, 2019) 4 hours before the tumors were collected. Peptide accumulation in the tumor was observed by immunofluorescence (IF) staining of FAM. We had previously shown that L-CRV homes to such tumors following intravenous injection. […] Additionally, (D)-CRV-DEX was first applied to RA mice model via subcutaneous administration with hydrogel. […] The pharmacokinetics (PK) and biodistribution at other time points will be further evaluated.
# [6] = 0.1 or 1 mg kg-1 PSL equivalent
compound,measurement,setting,value
"C[C@]12C=CC(=O)C=C1CC[C@@H]1[C@@H]2[C@@H](O)C[C@@]2(C)[C@H]1CC[C@]2(O)C(=O)CO [Free PSL, prednisolone]",AUC(0-t),[1]; mean (n = 3),41.3 µg·h/mL
same,half-life,[1]; mean ± SD (n = 3),3.78 ± 0.5 h
same,Thymus weight,[2]; 0.1 mg kg-1 PSL equivalent i.v. every 2 days for 5 days,36.3 mg
same,Lymphocytes (count of total blood lymphocytes),[2]; 0.1 mg kg-1 PSL equivalent,0.45 fold changes
same,T cells (CD45+CD3+) count,[2]; 0.1 mg kg-1 PSL equivalent,0.47 fold changes
same,Thymus weight,[2]; 1 mg kg-1 PSL equivalent i.v. every 2 days for 5 days,28.3 mg
same,Lymphocytes (count of total blood lymphocytes),[2]; 1 mg kg-1 PSL equivalent,0.27 fold changes
same,T cells (CD45+CD3+) count,[2]; 1 mg kg-1 PSL equivalent,0.40 fold changes
same,apoptosis in the thymus and other organs (TUNEL),[2]; [6],increases the level of apoptosis mainly in the thymus
same,counts of total lymphocytes and T subsets (in words),[2]; [6],reduced the counts of total lymphocytes and T subsets
same,thymus weight (in words),[2]; 0.1 or 1 mg kg-1 PSL equivalent i.v. every two days for five days,greatest reduction in thymus weight
GGS: control peptide <FAM>-<Ahx>-GGSGGSKG (SEQ ID NO: 2) ({FAM-Ahx}-GGSGGSKG),peptide accumulation in the healthy lung,[3],little accumulation
same,peptide accumulation in arthritic joints,[4],few FAM signals were detected
"D-CRV: D-isoform of CRV (SEQ ID NO: 52), fluorescein (FAM) dye labeled ([dC][dR][dV][dL][dR][dS]G[dS][dC]; disulfide 1-9 (inferred); also: FAM label, position not given here)",peptide accumulation in the tumor,"[5]; FAM-labeled peptide, oral gavage 100 uL of 5 mg/mL",significant accumulation of CRV in the tumors
same,colocalization with CD11b in the tumor,[5]; oral gavage,colocalization with the myeloid cell marker CD11b in the tumor
